Calls of active or inactive are those of the source. The calls are words filed in the database; no cut-off is given here.
Experiments:
[1] = Effect on locomotor activity in ICR mouse assessed as hypolocomotion at 10 mg/kg, ip measured after 90 mins; format: ADME, organism-based; conditions: in vivo, 1.5 h
Mus musculus = experiment: Antidepressant activity in ICR mouse aassessed as inhibition of apomorphine-induced climbing behaviour at 10 mg/kg, ip administered prior to APO challenge and measured after 30 mins; format: functional, organism-based
[2] = target: Adrenergic receptor alpha-1 (Rattus norvegicus) (UniProt P15823+P23944+P43140); experiment: Displacement of [3H]-prazosin from rat adrenergic alpha 1 receptor incubated for 60 mins by liquid scintillation counting analysis; format: protein assay
[3] = target: 5-hydroxytryptamine receptor 1A (Homo sapiens) (UniProt P08908); experiment: Displacement of [3H]-8-OH-DPAT from human 5HT1AR expressed in CHO cells incubated for 30 mins by liquid scintillation counting analysis; format: cell-based
Chain of 5-hydroxytryptamine receptor 1A (Homo sapiens) (P08908 whole entry): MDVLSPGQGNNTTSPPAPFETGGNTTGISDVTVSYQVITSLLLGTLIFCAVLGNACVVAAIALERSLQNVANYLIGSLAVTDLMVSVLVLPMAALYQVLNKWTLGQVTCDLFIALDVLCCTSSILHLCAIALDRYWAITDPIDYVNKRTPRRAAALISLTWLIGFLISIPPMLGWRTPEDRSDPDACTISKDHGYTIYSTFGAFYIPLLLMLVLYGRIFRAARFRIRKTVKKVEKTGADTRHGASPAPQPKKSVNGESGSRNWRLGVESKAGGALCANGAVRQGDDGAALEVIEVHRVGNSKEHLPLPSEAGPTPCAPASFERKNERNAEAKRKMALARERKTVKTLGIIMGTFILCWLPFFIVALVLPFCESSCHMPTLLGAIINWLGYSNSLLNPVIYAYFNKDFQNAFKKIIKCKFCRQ

[4] = target: 5-hydroxytryptamine receptor 2A (Homo sapiens) (UniProt P28223); experiment: Displacement of [3H]-ketanserin from human 5HT2AR expressed in CHO cells incubated for 30 mins by liquid scintillation counting analysis; format: cell-based
Chain of 5-hydroxytryptamine receptor 2A (Homo sapiens) (P28223 whole entry): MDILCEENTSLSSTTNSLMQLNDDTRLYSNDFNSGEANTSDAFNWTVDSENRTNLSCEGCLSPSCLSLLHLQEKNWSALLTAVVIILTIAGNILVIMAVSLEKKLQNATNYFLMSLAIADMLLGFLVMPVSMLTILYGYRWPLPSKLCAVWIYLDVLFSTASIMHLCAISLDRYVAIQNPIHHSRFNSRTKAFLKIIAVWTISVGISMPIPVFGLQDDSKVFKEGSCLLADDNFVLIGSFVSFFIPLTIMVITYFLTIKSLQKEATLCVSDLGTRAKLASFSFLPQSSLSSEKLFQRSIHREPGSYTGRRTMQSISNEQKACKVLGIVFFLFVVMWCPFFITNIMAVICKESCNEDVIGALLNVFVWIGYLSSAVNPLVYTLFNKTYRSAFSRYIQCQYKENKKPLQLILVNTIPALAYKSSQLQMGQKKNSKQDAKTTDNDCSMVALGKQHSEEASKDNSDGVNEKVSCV

[5] = target: 5-hydroxytryptamine receptor 6 (Homo sapiens) (UniProt P50406); experiment: Displacement of [3H]-LSD from human 5HT6 incubated for 30 mins by liquid scintillation counting analysis
Chain of 5-hydroxytryptamine receptor 6 (Homo sapiens) (P50406 whole entry): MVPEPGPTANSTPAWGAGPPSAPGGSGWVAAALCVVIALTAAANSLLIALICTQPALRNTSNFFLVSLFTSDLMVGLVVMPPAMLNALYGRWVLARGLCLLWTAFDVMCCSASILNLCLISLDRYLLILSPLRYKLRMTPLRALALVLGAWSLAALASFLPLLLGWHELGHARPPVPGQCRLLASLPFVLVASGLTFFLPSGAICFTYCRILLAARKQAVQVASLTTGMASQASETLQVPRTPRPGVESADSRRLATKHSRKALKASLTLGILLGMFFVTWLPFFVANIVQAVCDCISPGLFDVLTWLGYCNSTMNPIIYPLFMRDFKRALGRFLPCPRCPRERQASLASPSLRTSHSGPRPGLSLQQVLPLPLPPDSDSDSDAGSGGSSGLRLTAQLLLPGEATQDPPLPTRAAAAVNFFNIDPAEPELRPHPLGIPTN

[6] = target: Sodium-dependent dopamine transporter (Rattus norvegicus) (UniProt P23977); experiment: Displacement of [3H]-WIN35428 from rat striatum DAT; format: tissue-based
Chain of Sodium-dependent dopamine transporter (Rattus norvegicus) (P23977 whole entry): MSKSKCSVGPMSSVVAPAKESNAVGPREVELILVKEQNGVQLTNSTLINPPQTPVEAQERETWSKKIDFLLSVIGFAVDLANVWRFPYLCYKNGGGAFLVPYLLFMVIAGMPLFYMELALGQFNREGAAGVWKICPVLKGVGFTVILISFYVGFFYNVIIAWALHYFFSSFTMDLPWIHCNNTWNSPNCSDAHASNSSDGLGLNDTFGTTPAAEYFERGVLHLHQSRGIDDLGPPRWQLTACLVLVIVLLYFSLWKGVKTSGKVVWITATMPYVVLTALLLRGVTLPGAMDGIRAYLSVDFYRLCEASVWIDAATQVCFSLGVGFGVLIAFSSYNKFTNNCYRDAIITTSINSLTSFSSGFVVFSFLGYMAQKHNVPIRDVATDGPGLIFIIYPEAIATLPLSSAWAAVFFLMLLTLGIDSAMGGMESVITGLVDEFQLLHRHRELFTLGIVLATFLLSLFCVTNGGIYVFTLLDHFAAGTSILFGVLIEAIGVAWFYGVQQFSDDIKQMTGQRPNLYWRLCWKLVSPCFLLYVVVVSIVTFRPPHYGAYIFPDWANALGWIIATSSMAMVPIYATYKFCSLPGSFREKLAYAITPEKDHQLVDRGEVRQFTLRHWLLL

[7] = target: Sodium-dependent noradrenaline transporter (Homo sapiens) (UniProt P23975); experiment: Displacement of [3H]-Nisoxetine from NET (unknown origin)
Chain of Sodium-dependent noradrenaline transporter (Homo sapiens) (P23975 whole entry): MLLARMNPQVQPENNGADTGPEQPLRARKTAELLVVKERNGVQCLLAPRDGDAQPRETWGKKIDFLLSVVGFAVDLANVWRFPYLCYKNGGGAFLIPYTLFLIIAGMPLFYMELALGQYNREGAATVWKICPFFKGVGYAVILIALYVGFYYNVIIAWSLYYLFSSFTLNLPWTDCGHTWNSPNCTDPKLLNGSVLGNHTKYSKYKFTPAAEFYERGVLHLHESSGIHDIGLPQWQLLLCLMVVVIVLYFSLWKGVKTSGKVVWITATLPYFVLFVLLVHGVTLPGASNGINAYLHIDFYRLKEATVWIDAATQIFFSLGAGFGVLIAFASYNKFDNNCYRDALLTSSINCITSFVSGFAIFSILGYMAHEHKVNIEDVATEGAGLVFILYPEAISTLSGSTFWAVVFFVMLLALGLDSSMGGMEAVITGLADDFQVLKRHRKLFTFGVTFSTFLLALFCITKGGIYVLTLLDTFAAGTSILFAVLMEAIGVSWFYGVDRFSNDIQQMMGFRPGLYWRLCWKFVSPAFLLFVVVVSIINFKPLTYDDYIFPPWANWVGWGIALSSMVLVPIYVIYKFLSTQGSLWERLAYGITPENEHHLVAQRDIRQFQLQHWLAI

[8] = MRT in ICR mouse at 3 mg/kg, iv measured up to 24 hrs by HPLC-MS/MS analysis; format: ADME, organism-based; conditions: in vivo
[9] = Volume of distribution at steady state in ICR mouse at 3 mg/kg, iv measured up to 24 hrs by HPLC-MS/MS analysis; format: ADME, organism-based; conditions: in vivo, read-out: Vdss
[10] = Drug concentration in ICR mouse brain at 3 mg/kg, iv measured at 0.5 hrs by LC-MS/MS analysis; format: ADME, organism-based; conditions: read-out: Ct
[11] = Drug concentration in ICR mouse plasma at 3 mg/kg, iv measured at 0.5 hrs by LC-MS/MS analysis; format: ADME, organism-based
[12] = Ratio of drug concentration in brain to plasma in ICR mouse at 3 mg/kg, iv measured at 0.5 hrs by LC-MS/MS analysis; format: ADME, organism-based; conditions: read-out: BPR
[13] = Drug concentration in ICR mouse brain at 3 mg/kg, iv measured at 2 hrs; format: ADME, organism-based; conditions: read-out: Ct
[14] = Ratio of drug concentration in brain to plasma in ICR mouse at 3 mg/kg, iv measured at 2 hrs by LC-MS/MS analysis; format: ADME, organism-based; conditions: read-out: BPR
[15] = Cmax in ICR mouse at 10 mg/kg, po measured up to 24 hrs by HPLC-MS/MS analysis; format: ADME, organism-based; design: route oral, dose 10 mg/kg, time <=24; conditions: in vivo
[16] = Tmax in ICR mouse at 10 mg/kg, po measured up to 24 hrs by HPLC-MS/MS analysis; format: ADME, organism-based; conditions: in vivo
[17] = Half life in ICR mouse at 10 mg/kg, po measured up to 24 hrs by HPLC-MS/MS analysis; format: ADME, organism-based; conditions: in vivo
[18] = Ratio of drug concentration in brain to plasma in ICR mouse at 10 mg/kg, po measured at 0.5 hrs by LC-MS/MS analysis; format: ADME, organism-based; conditions: read-out: BPR
[19] = Drug concentration in ICR mouse brain at 10 mg/kg, po measured at 2 hrs by LC-MS/MS analysis; format: ADME, organism-based; conditions: read-out: Ct
[20] = Half life in Sprague-Dawley rat at 3 mg/kg, iv measured up to 1280 mins by HPLC-MS/MS analysis; format: ADME, organism-based; conditions: in vivo
[21] = Clearance in Sprague-Dawley rat at 3 mg/kg, iv measured up to 1280 mins by HPLC-MS/MS analysis; format: ADME, organism-based; conditions: in vivo
[22] = Volume of distribution at steady state in Sprague-Dawley rat at 3 mg/kg, iv measured up to 1280 mins by HPLC-MS/MS analysis; format: ADME, organism-based; conditions: in vivo
[23] = AUC (0 to t) in Sprague-Dawley rat at 3 mg/kg, iv measured up to 1280 mins by HPLC-MS/MS analysis; format: ADME, organism-based; design: route intravenous, dose 3 mg/kg, time <=1280; conditions: in vivo
[24] = Cmax in Sprague-Dawley rat at 10 mg/kg, po measured up to 1280 mins by HPLC-MS/MS analysis; format: ADME, organism-based; design: route oral, dose 10 mg/kg, time <=1280; conditions: in vivo
[25] = Half life in Sprague-Dawley rat at 10 mg/kg, po measured up to 1280 mins by HPLC-MS/MS analysis; format: ADME, organism-based; conditions: in vivo
[26] = Tmax in Sprague-Dawley rat at 10 mg/kg, po measured up to 1280 mins by HPLC-MS/MS analysis; format: ADME, organism-based; conditions: in vivo
[27] = AUC (0 to t) in Sprague-Dawley rat at 10 mg/kg, po measured up to 1280 mins by HPLC-MS/MS analysis; format: ADME, organism-based; design: route oral, dose 10 mg/kg, time <=1280; conditions: in vivo
[28] = Oral bioavailability in Sprague-Dawley rat at 10 mg/kg measured up to 1280 mins by HPLC-MS/MS analysis; format: ADME, organism-based; conditions: in vivo
[29] = Drug concentration in Sprague-Dawley rat brain at 3 mg/kg, iv measured at 80 mins by LC-MS/MS analysis; format: ADME, organism-based; conditions: read-out: Ct
[30] = Drug concentration in Sprague-Dawley rat plasma at 3 mg/kg, iv measured at 80 mins by LC-MS/MS analysis; format: ADME, organism-based
[31] = Ratio of drug concentration in brain to plasma in Sprague-Dawley rat at 3 mg/kg, iv measured at 20 mins by LC-MS/MS analysis; format: ADME, organism-based; conditions: read-out: BPR
[32] = Cytotoxicity against African green monkey Vero cells assessed as cell growth inhibition at 60 uM measured after 48 hrs by CCK8 assay relative to control; format: cell-based; conditions: chlorocebus sabaeus
[33] = Cytotoxicity against mouse L929 cells assessed as cell growth inhibition at 120 uM measured after 48 hrs by CCK8 assay relative to control; format: cell-based
[34] = Cytotoxicity against mouse L929 cells assessed as cell growth inhibition at 60 uM measured after 48 hrs by CCK8 assay relative to control; format: cell-based
[35] = Cytotoxicity against human HEK293 cells assessed as cell growth inhibition at 120 uM measured after 48 hrs by CCK8 assay relative to control; format: cell-based
[36] = Cytotoxicity against human HEK293 cells assessed as cell growth inhibition at 60 uM measured after 48 hrs by CCK8 assay relative to control; format: cell-based
hERG (KCNH2) = hERG (KCNH2) (Homo sapiens, UniProt Q12809); experiment: Inhibition of human ERG expressed in CHO cells at 100 uM with holding potential at -80 to -60 mV for 500s followed by raise in potential at +30 mV for 2 sec and subsequent repolarization to -60 mV for 2 sec by whole-cell patch clamp method relative to control; format: cell-based; conditions: CHO cells expressing human ERG
Chain of hERG (KCNH2) (Q12809 whole entry): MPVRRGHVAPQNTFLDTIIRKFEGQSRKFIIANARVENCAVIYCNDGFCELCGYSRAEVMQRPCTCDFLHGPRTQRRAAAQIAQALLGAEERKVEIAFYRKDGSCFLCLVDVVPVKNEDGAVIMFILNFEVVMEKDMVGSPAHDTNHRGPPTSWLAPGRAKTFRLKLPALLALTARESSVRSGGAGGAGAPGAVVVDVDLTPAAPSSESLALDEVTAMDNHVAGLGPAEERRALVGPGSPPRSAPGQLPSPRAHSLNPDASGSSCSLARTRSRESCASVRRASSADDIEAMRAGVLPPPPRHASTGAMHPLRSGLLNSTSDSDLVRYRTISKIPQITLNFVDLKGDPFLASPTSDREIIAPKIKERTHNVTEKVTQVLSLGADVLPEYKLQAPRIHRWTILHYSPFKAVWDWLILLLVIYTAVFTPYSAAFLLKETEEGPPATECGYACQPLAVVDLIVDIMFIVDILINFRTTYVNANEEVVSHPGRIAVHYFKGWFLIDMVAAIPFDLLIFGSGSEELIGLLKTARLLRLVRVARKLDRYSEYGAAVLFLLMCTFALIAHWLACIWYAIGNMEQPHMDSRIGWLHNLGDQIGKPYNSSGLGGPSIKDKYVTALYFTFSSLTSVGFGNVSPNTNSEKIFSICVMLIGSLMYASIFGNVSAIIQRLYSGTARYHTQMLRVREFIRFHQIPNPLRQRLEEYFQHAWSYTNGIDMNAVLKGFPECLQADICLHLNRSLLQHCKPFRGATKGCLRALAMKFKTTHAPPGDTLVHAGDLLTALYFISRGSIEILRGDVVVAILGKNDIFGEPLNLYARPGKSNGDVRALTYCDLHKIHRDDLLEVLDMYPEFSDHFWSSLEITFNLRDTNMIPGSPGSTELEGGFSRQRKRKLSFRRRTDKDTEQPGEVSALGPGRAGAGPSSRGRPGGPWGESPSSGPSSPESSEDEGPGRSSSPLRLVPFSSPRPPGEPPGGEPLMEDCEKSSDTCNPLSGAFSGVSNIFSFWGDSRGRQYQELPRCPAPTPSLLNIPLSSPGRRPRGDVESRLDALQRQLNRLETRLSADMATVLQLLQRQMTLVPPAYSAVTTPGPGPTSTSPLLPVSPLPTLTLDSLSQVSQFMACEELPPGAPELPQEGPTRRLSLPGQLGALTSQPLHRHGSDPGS

[37] = […] in ICR mouse assessed as body weight gain at 30 mg/kg, po administered for 28 days; format: organism-based; conditions: in vivo, 672 h, time 28 day
[38] = […] in ICR mouse assessed as change in behaviour at 30 mg/kg, po administered for 28 days; format: organism-based; conditions: in vivo, 672 h, time 28 day

## Cc1cc(C)n(Cc2ccc(C(=O)Nc3ccc(Cl)c(Cl)c3)s2)n1
[1]
  Activity: Non-Toxic
Mus musculus
  Activity: inactive
[2]
  inhibition: inactive
[3]
  inhibition: inactive
[4]
  inhibition: inactive
[5]
  inhibition: inactive
[6]
  inhibition: inactive
[7]
  inhibition: inactive
[8]
  MRT: 4 h
[9]
  Vd: 8.3 L/kg
[10]
  concentration at 0.5 h: 160 ng/mL
[11]
  concentration at 0.5 h: 389 ng/mL
[12]
  Kp at 0.5 h: 0.41
[13]
  concentration at 2 h: 85.5 ng/mL
[14]
  Kp at 2 h: 0.34
[15]
  Cmax: 760 ng/mL
[16]
  Tmax: 30 min
[17]
  half-life: 174 min
[18]
  Kp at 0.5 h: 0.37
[19]
  concentration at 2 h: 174 ng/mL
[20]
  t1/2: 1.7 h
[21]
  CL: 1.67 L/h/kg
[22]
  Vdss: 1.27 L/kg
[23]
  AUC(0-t) at 1280 min: 1820 ng·h/mL
[24]
  Cmax: 190 ng/mL
[25]
  half-life: 67.8 min
[26]
  Tmax: 33.3 min
[27]
  AUC(0-t) at 1280 min: 503 ng·h/mL
[28]
  bioavailability: 8.32%
[29]
  concentration at 1.333 h: 354 ng/g
[30]
  concentration at 1.333 h: 239 ng/mL
[31]
  Kp at 20 min: 1.5
[32]
  inhibition at 48 h, 60 µM: 21.9%
[33]
  inhibition at 48 h, 120 µM: -4.6%
[34]
  inhibition at 48 h, 60 µM: 0.5%
[35]
  inhibition at 48 h, 120 µM: -14%
[36]
  inhibition at 48 h, 60 µM: -5.2%
hERG (KCNH2)
  inhibition at 2 s, 100 µM: 45%
[37]
  Activity: Non-Toxic
[38]
  Activity: Non-Toxic
